Key:
[1] = known triarylmethane dyes; colour change from lower pH to higher pH; cited from earlier work
[2] = Storage stability of concentrates at elevated temperatures; conditions: pH indicator in agricultural concentrate with carbohydrate acids as pH modifying agent

Row | stability of the pH indicator in the presence of carbohydrate acids / carbohydrate acid mixture [2] | Compound | Range of pH colour transition [1]
1 | – | Cc1cc(C2(c3cc(C)c(O)c(Br)c3)OS(=O)(=O)c3ccccc32)cc(Br)c1O [bromocresol purple] | pH 5.2-6.8
2 | low stability | O=S1(=O)OC(c2ccc(O)c(Cl)c2)(c2ccc(O)c(Cl)c2)c2ccccc21 [chlorophenol red] | pH 4.8-6.7
3 | – | Cc1c(C2(c3cc(Br)c(O)c(Br)c3C)OS(=O)(=O)c3ccccc32)cc(Br)c(O)c1Br [bromocresol green] | pH 3.8-5.4
4 | – | O=S1(=O)OC(c2cc(Br)c(O)c(Br)c2)(c2cc(Br)c(O)c(Br)c2)c2ccccc21 [bromophenol blue] | pH 3.0-4.6

From patent publication US9277747B2, “Agricultural composition comprising pH sensitive agricultural chemicals and organic pH buffer” (NUTRIAG LTD., priority 2010, dated 2016)
